Experimental data as given in PMC7655571, “Acetylcholinesterase inhibition in electric eel and human donor blood: an in vitro approach to investigate interspecies differences and human variability in toxicodynamics” (Archives of Toxicology, 2020).
Values joined by “and” are separate entries in the source; they are usually repeats but may differ in a detail not shown here. Identical values can stand only once. Like-named read-outs stand apart in the source and are kept apart here.

Assays:
human blood AChE = target: T1, human blood AChE (Homo sapiens, UniProt P22303); test: AChE inhibition in human donor whole blood (Ellman method); type: biochemical; conditions: for AChE inhibition (in words), human blood: concentration–response curves; for Coefficient of variation (CV) C1 Human: concentration level C1 (Table S2); for Coefficient of variation (CV) C2 Human: concentration level C2 (Table S2); for Coefficient of variation (CV) C3 Human: concentration level C3 (Table S2); for Coefficient of variation (CV) C4 Human: concentration level C4 (Table S2); for Human uncertainty factor (UF) UF97.5: interindividual differences, concentration closest to the IC20, 95% CI in brackets
T1 construct: 90 µL undiluted blood in a 48-wells plate; from tissue; host or cells: venous EDTA whole blood from healthy human donors, lysed and diluted in Triton X-100 buffer
T1 sequence (P22303 32-617 isoform P22303-2 limits assumed): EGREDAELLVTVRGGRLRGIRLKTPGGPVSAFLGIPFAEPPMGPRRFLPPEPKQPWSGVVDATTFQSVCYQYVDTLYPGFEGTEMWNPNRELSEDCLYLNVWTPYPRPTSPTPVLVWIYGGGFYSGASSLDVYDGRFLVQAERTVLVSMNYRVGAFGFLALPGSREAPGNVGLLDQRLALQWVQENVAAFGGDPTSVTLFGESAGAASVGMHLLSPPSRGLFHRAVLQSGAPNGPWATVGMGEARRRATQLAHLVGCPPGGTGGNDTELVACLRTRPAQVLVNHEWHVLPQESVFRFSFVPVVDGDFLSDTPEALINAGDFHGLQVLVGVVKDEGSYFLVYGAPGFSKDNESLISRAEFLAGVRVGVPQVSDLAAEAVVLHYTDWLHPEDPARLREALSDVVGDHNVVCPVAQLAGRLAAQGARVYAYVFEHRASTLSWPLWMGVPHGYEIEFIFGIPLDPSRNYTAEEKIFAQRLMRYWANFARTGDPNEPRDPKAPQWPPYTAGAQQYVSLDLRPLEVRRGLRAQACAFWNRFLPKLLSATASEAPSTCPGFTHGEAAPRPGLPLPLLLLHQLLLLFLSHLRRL
Protocol: (§1) A 1.3 mM DTNB buffer and a 6 mM acetylthiocholine buffer were prepared in the 50 mM sodium phosphate buffer, a 3 mM ethopropazine buffer was prepared in sterile water and all were stored in aliquots at − 20 °C. A 600 µM ethopropazine buffer was prepared just before use in sodium phosphate buffer.
(§2) Stock solutions were diluted in methanol to create a dosing series and also stored at − 20 °C. These series were 100× diluted in sodium phosphate buffer to get 1% methanol solutions, resulting in a final concentration of 0.1% methanol in the wells.
AChE from Electrophorus electricus (electric eel) and freshly drawn (maximum one-day-old), venous EDTA whole blood samples from healthy human donors were used. […] For human blood AChE, 50 µL of the blood was added to a new 48-wells plate and 950 µL Triton buffer was added to these wells (20× dilution).
Briefly, 20 µL of electric eel AChE or 20 µL of Triton-diluted blood (either exposed or unexposed) and 20 µL ethopropazine were added to 460 µL of DTNB buffer in a 48-wells plate. […] Blank wells contained only DTNB buffer and unexposed enzyme/blood to correct for any background absorbance. To these wells, 100 µL sodium phosphate buffer was added instead of acetylthiocholine after incubation.
Unexposed, diluted blood (100 µL) was added to a 96-wells plate and 100 µL transformation agent (20 mg potassium ferricyanide, 5 mg potassium cyanide, 100 mg sodium bicarbonate and 50 µL Triton X-100 in 100 mL water) was added. […] Blank wells contained transformation reagent and buffer to correct for any background absorbance.
All in vitro data were analysed in GraphPad Prism (version 8.4) and are expressed as mean ± standard deviation (SD). For data analysis, vehicle control (0.1% methanol) was set at 100% for both human and electric eel AChE. For human blood, the technical replicates were averaged to perform statistical tests. Unpaired t tests were used to test for differences between men and women and a one-way ANOVA followed by a post-hoc Tukey test was used to compare data between different age groups (group 1: ≥ 60 years; group 2: 31–60 years; group 3: ≤ 30 years).

[1] = target: T2, Electrophorus electricus AChE (Electrophorus electricus, UniProt O42275); test: AChE inhibition, electric eel enzyme (Ellman method); type: biochemical; conditions: for AChE inhibition (in words), electric eel: concentration–response curves
T2 construct: purchased Sigma-Aldrich C2888
T2 sequence (O42275 24-633): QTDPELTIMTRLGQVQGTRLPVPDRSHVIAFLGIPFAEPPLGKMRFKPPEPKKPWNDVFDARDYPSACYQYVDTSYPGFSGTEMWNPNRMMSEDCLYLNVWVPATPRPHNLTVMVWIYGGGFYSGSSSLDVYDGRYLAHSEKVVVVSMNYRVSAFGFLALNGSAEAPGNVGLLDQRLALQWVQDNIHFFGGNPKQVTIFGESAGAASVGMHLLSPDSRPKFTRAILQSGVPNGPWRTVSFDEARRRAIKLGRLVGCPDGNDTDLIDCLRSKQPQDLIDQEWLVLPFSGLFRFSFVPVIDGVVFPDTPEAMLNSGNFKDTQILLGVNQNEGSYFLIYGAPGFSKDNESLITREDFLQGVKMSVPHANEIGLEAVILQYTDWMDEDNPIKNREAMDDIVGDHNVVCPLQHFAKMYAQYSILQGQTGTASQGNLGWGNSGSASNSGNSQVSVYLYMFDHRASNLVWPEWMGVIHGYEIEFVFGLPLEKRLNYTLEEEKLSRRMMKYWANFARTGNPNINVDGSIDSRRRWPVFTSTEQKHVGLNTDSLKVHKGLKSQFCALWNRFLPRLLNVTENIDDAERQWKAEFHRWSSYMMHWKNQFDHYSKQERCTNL
Protocol: as §1, §2
AChE from Electrophorus electricus (electric eel) and freshly drawn (maximum one-day-old), venous EDTA whole blood samples from healthy human donors were used. […] Following incubation for 30 min at room temperature, electric eel AChE was used directly in the enzyme activity assay (see “Enzyme activity assay”). For human blood AChE, 50 µL of the blood was added to a new 48-wells plate and 950 µL Triton buffer was added to these wells (20× dilution).
Briefly, 20 µL of electric eel AChE or 20 µL of Triton-diluted blood (either exposed or unexposed) and 20 µL ethopropazine were added to 460 µL of DTNB buffer in a 48-wells plate. […] Blank wells contained only DTNB buffer and unexposed enzyme/blood to correct for any background absorbance. To these wells, 100 µL sodium phosphate buffer was added instead of acetylthiocholine after incubation. The final concentration of electric eel AChE was 4 mU/well.
All in vitro data were analysed in GraphPad Prism (version 8.4) and are expressed as mean ± standard deviation (SD). For data analysis, vehicle control (0.1% methanol) was set at 100% for both human and electric eel AChE. For human blood, the technical replicates were averaged to perform statistical tests. […] The electric eel AChE data consisted of 3 technical replicates per experiment and 3–4 independent biological replicates.

[2] = measured or estimated in plasma following human exposure, cited from earlier work
electric eel AChE = conditions: cited from earlier work
[3] = target: human AChE (recombinant enzyme); conditions: source: recombinant enzyme; ref Li et al. ([2019]); cited from earlier work
[4] = human variability in AChE inhibition
[5] = whole blood, average of 20 donors, read-out: IC20 Human
[6] = 30 min exposure, room temperature

With `CCOP(=O)(OCC)Oc1nc(Cl)c(Cl)cc1Cl` [CPO, Chlorpyrifos-oxon] the “AChE inhibition (in words), human blood” value (human blood AChE) was “show inhibition of AChE”, the IC20 (human blood AChE; donor 3, read-out: IC20 Value) was 100 nM and the IC20 (human blood AChE; donor 4, read-out: IC20 Value) was 100 nM. For the same compound, the IC20 (human blood AChE; donor 5, read-out: IC20 Value) was 100 nM, the IC20 (human blood AChE; donor 8, read-out: IC20 Value) was 100 nM and the IC20 (human blood AChE; donor 11, read-out: IC20 Value) was 100 nM. The IC20 (human blood AChE; donor 15, read-out: IC20 Value) was 100 nM, the IC20 (human blood AChE; donor 17, read-out: IC20 Value) was 100 nM and the “concentration at which AChE activity is inhibited completely” value (human blood AChE; human donor blood) was at least 2.9 µM. For the same compound, the “Coefficient of variation (CV) C1 Human” value (human blood AChE; [4]) was 5.5%, the “Coefficient of variation (CV) C2 Human” value (human blood AChE; [4]) was 6.0% and the “Coefficient of variation (CV) C3 Human” value (human blood AChE; [4]) was 12%. For the same compound, the “Coefficient of variation (CV) C4 Human” value (human blood AChE; [4]) was 99%, the “Human uncertainty factor (UF) UF97.5” value (human blood AChE) was 2.2 and 2.2 [1.9–2.7] and the IC20 (human blood AChE; [5]) was 170 nM. The IC20 [1, 6] was 10 nM, the “AChE inhibition (in words), electric eel” value [1] was “show inhibition of AChE” and the In vivo concentration ([2]; ref Eyer et al. ([2009])) was at most 0.06 µM. For the same compound, the In vivo concentration ([2]; ref Heilmair et al. ([2008])) was at most 0.02 µM, the IC50 (electric eel AChE; ref Jett et al. ([1999])) was 10 nM and the IC50 (electric eel AChE; ref Meijer et al. ([2014])) was 10 nM. For the same compound, the IC50 (electric eel AChE; ref Čolović et al. ([2011])) was 30 nM.
In the case of `CCOP(=O)(OCC)Oc1cc(C)nc(C(C)C)n1` [DZO, diazinon-oxon], the IC50 [3] is listed as 1300 nM, the “AChE inhibition (in words), human blood” value (human blood AChE) is listed as “show inhibition of AChE” and the IC20 (human blood AChE; donor 1, read-out: IC20 Value) is listed as 500 nM. The IC50 (human blood AChE; donor 1, read-out: IC50 Value) was 1500 nM, the IC20 (human blood AChE; donor 2, read-out: IC20 Value) was 700 nM and the IC50 (human blood AChE; donor 2, read-out: IC50 Value) was 1700 nM. The IC20 (human blood AChE; donor 3, read-out: IC20 Value) was 1000 nM, the IC50 (human blood AChE; donor 3, read-out: IC50 Value) was 2300 nM and the IC20 (human blood AChE; donor 4, read-out: IC20 Value) was 400 nM. It also gave an IC50 (human blood AChE; donor 4, read-out: IC50 Value) of 1500 nM, an IC20 (human blood AChE; donor 5, read-out: IC20 Value) of 700 nM and an IC50 (human blood AChE; donor 5, read-out: IC50 Value) of 1600 nM. It also gave an IC20 (human blood AChE; donor 6, read-out: IC20 Value) of 1400 nM, an IC50 (human blood AChE; donor 6, read-out: IC50 Value) of 2600 nM and an IC20 (human blood AChE; donor 7, read-out: IC20 Value) of 1200 nM. The IC50 (human blood AChE; donor 7, read-out: IC50 Value) was 2400 nM, the IC20 (human blood AChE; donor 8, read-out: IC20 Value) was 1200 nM and the IC50 (human blood AChE; donor 8, read-out: IC50 Value) was 2200 nM. It also gave an IC20 (human blood AChE; donor 9, read-out: IC20 Value) of 1100 nM, an IC50 (human blood AChE; donor 9, read-out: IC50 Value) of 2100 nM and an IC20 (human blood AChE; donor 10, read-out: IC20 Value) of 1900 nM. It also gave an IC50 (human blood AChE; donor 10, read-out: IC50 Value) of 4500 nM, an IC20 (human blood AChE; donor 11, read-out: IC20 Value) of 1700 nM and an IC50 (human blood AChE; donor 11, read-out: IC50 Value) of 2900 nM. For the same compound, the IC20 (human blood AChE; donor 12, read-out: IC20 Value) was 1900 nM, the IC50 (human blood AChE; donor 12, read-out: IC50 Value) was 3700 nM and the IC20 (human blood AChE; donor 13, read-out: IC20 Value) was 1100 nM. For the same compound, the IC20 (human blood AChE; donor 14, read-out: IC20 Value) was 1300 nM, the IC50 (human blood AChE; donor 14, read-out: IC50 Value) was 2800 nM and the IC20 (human blood AChE; donor 15, read-out: IC20 Value) was 900 nM. For the same compound, the IC50 (human blood AChE; donor 15, read-out: IC50 Value) was 1900 nM, the IC20 (human blood AChE; donor 16, read-out: IC20 Value) was 1300 nM and the IC50 (human blood AChE; donor 16, read-out: IC50 Value) was 3000 nM. The IC20 (human blood AChE; donor 17, read-out: IC20 Value) was 900 nM, the IC50 (human blood AChE; donor 17, read-out: IC50 Value) was 2200 nM and the IC20 (human blood AChE; donor 18, read-out: IC20 Value) was 1400 nM. For the same compound, the IC50 (human blood AChE; donor 18, read-out: IC50 Value) was 2900 nM, the IC20 (human blood AChE; donor 19, read-out: IC20 Value) was 1900 nM and the IC50 (human blood AChE; donor 19, read-out: IC50 Value) was 3400 nM. The IC20 (human blood AChE; donor 20, read-out: IC20 Value) was 1300 nM, the IC50 (human blood AChE; donor 20, read-out: IC50 Value) was 2700 nM and the “Coefficient of variation (CV) C1 Human” value (human blood AChE; [4]) was 5.9%. For the same compound, the “Coefficient of variation (CV) C2 Human” value (human blood AChE; [4]) was 5.7%, the “Coefficient of variation (CV) C3 Human” value (human blood AChE; [4]) was 6.8% and the “Coefficient of variation (CV) C4 Human” value (human blood AChE; [4]) was 6.1%. The “Coefficient of variation (CV) C5 Human” value (human blood AChE; human variability in AChE inhibition, concentration level C5 (Table S2)) was 8.5%, the “Coefficient of variation (CV) C6 Human” value (human blood AChE; human variability in AChE inhibition, highest concentration C6 (Table S2)) was 25% and the “Human uncertainty factor (UF) UF97.5” value (human blood AChE) was 1.4 [1.2–1.6]. For the same compound, the IC20 (human blood AChE; [5]) was 1200 nM, the IC50 (human blood AChE; whole blood, average of 20 donors, read-out: IC50 Human) was 2500 nM and the IC20 [1, 6] was 410 nM. For the same compound, the IC50 ([1]; 30 min exposure, room temperature, 3–4 independent experiments, read-out: IC50 Electric eel) was 1030 nM, the “AChE inhibition (in words), electric eel” value [1] was “show inhibition of AChE” and the IC50 (electric eel AChE; ref Čolović et al. ([2011])) was 50 nM.
